In US10487313B2, “Efficient induction of definitive endoderm from pluripotent stem cells” (Novo Nordisk A/S, priority 2011, dated 2019):
Entries after “also recorded” stand apart in the source; their conditions may differ.

How the values were obtained:
[1] = test system: SA121 hES and chIPS4 iPS cells; experiment: Quantitative real-time PCR of PS and DE markers (Brachyury, SOX17) during DE induction; type: cell-based, human
Experimental: Human embryonic stem (hES) cells SA121 and chIPS4 (Cellartis) were grown on human fibronectin (Sigma) in DEF culture media (Cellartis) with 30 ng/ml bFGF (Invitrogen) and 10 ng/ml Noggin (Peprotech) in 6-96 well plates. Cells were single cell passaged with Rock inhibitor Y-27632 (Calbiochem) and seeded at a density of 40000 cells/cm2 for experiments. Experiments were initiated 4 d after passage.
Confluent cultures were washed once in RPMI1640 (Invitrogen) before 24 hour pre-treatment with 0,5-7μM CHIR99021 (Stemgent) in RPMI. Control cells were left untreated in RPMI and D'Amour cells were either left in RPMI or treated with AA (Peprotech)+Wnt3a (R&D Systems) without pre-treatment depending on experimental setup.
After 24 hours, pretreated and control cells were washed once with RPMI before adding 100 ng/ml AA in RPMI. D'Amour cells were also treated with 100 ng/ml AA but with 0,2% FBS instead of B27. 24 h later, 2% B27 (Invitrogen) was added to the AA media for 2-3 d. Control cells were treated with B27 to prevent cell death and D'Amour cells with 2% FBS according to published protocol. Media was changed every day.
RNA samples were collected after 24 h pre-treatment (D1), after 1 day of AA treatment (D2) and after 1-2 d of AA+B27 treatment (D3-4). Total RNA was extracted with the Rneasy Plus Mini kit (Qiagen) and quantitative real-time PCR was performed using the StepOnePLus system (Applied Biosystems).
Undifferentiated SA121 hES and chIPS4 iPS cells in DEF media (DO) were cultured either in RPMI without CHIR (Ctrl D1) or treated for 24 h with CHIR in RPMI (CHIR D1). The cells were then washed to ensure absence of CHIR and then both conditions were treated with 1 d AA (Ctrl and CHIR d2). […] T fold inductions after 24 h CHIR treatment spanned between 500-100000 compared to undifferentiated cells (d0). T protein levels were also confirmed with ICC (FIG. 2C).
The efficiency levels for both T and SOX17 were highly robust (n>60) and confirmed with IHC and SOX17 quantifications (FIG. 2C and Table 2.). […] SOX17 expression peaked already after one day of AA treatment when cells were subjected to CHIR for 24 h before AA induction.
hES SA121 and ChIPS4 cells were treated with either CHIR (3 μM), BIO (0.5 μM), Wnt3a (200 ng/ml) or AA alone (100 ng/ml) for 24 h prior to AA addition to show CHIR specificity (d1). Additionally, D'Amour (protocol as described in Kroon et al 2008) was tested in parallel.
Chir was titrated at concentrations between 1-7 uM and analyzed after 24 h Chir treatment (D1) and after 2 d of following AA treatment (D3).

hES SA121 cells = experiment: OCT4 and SOX17 protein ICC quantification during DE induction, DEF culture system; type: cell-based, human; conditions: CHIR 3 μM D1 then Activin A D2-3, or D'Amour protocol
Experimental: Human embryonic stem (hES) cells SA121 and […]) were grown on human fibronectin (Sigma) in DEF culture media (Cellartis) with 30 ng/ml bFGF (Invitrogen) and 10 ng/ml Noggin (Peprotech) in 6-96 well plates. Cells were single cell passaged with Rock inhibitor Y-27632 (Calbiochem) and seeded at a density of 40000 cells/cm2 for experiments. Experiments were initiated 4 d after passage. Confluent cultures were washed once in RPMI1640 (Invitrogen) before 24 hour pre-treatment with 0,5-7μM CHIR99021 (Stemgent) in RPMI. Control cells were left untreated in RPMI and D'Amour cells were either left in RPMI or treated with AA (Peprotech)+Wnt3a (R&D Systems) without pre-treatment depending on experimental setup. After 24 hours, pretreated and control cells were washed once with RPMI before adding 100 ng/ml AA in RPMI. D'Amour cells were also treated with 100 ng/ml AA but with 0,2% FBS instead of B27. 24 h later, 2% B27 (Invitrogen) was added to the AA media for 2-3 d. Control cells were treated with B27 to prevent cell death and D'Amour cells with 2% FBS according to published protocol. Media was changed every day. • Day 1: Cells were washed carefully in prewarmed (37° C.) RPMI before starting the differentiation. Day1 medium was premixed (CHIR 3 μM in prewarmed RPMI+PEST) and gently added to cell culture. Volumes were adjusted according to plate formats. • Day 2: Cells were washed carefully in prewarmed (37° C.) RPMI before media change. Day2 medium was premixed (100 ng/ml Activin A in prewarmed RPMI+0.1% PEST) and gently added to cell culture. • Day 3: Day3&4 mediums were premixed (100 ng/ml Activin A and 2% B27 in prewarmed RPMI+0.1% PEST) and gently added to cell culture. • Day 4: DE was harvested or reseeded for further differentiation. Cells were checked under the microscope every day. Cells were washed in PBS+/+ and fixed in 4% formaldehyde for 30 min (10% formaline, VWR). The cells were then washed again three times in PBS and left in PBS (4° C.) until staining. Fixed cells were washed with PBS once, then permeabilized with 0.5% Triton X-100 in PBS for 6 min, washed in PBS and blocked with TNB buffer (0.1 M Tris-HCL pH 7.5, 0.15 M NaCl, 0.5% Blocking Reagent (Perkin Elmer)) for 30 min. Primary antibodies (goat-anti-SOX17 (AF1924, RnD Systems); goat-anti-Brachyury (AF2085, RnD Systems); mouse-anti-OCT4 (sc5279, SantaCruz Biotechnology); goat-anti-PDX1 (AB47383, Abcam)) were added in 0.1% TritonX-100+PBS for 1 h in RT or 4° C. O/N. After a thorough washing step in PBS, secondary antibodies were added together with DAPI in 0.1% Triton X-100+PBS for 45 min at RT, washed thoroughly in PBS and left in PBS until photodocumentation.

[2] = 24 h CHIR (2-7 μM) in RPMI-1640, then AA containing medium

With `Cc1c[nH]c(-c2cnc(NCCNc3ccc(C#N)cn3)nc2-c2ccc(Cl)cc2Cl)n1` [CHIR, CHIR99021] the “time of SOX17 mRNA expression peak” value [1, 2] was 2 days, the “time of SOX17 protein expression peak” value [1, 2] was 3 to 4 days and the Sox17 expression ([1]; CHIR 1 uM, 2 d after AA treatment (D3)) was “significantly lower”. For the same compound, the Brachyury induction ([1]; CHIR 3 uM, after 24 h treatment (D1)) was “significantly seen; also recorded: significantly upregulated”, the “DE induction after subsequent AA stimulation” value ([1]; CHIR concentrations below 2 μM, after 72 hrs) was “not induced” and the “Brachyury (T) fold induction compared to undifferentiated cells” value ([1]; after 24 h CHIR treatment (D1), n>60) was 500-100000 fold. For the same compound, the “OCT4 ICC % positive cells” value (hES SA121 cells; SA121, D1) was 97.7%, the “SOX17 ICC % positive cells” value (hES SA121 cells; SA121, D1) was 0% and the “OCT4 ICC % positive cells” value (hES SA121 cells; SA121, D2) was 2.4%. For the same compound, the “SOX17 ICC % positive cells” value (hES SA121 cells; SA121, D2) was 72.1%, the “OCT4 ICC % positive cells” value (hES SA121 cells; SA121, D3) was 0.2% and the “SOX17 ICC % positive cells” value (hES SA121 cells; SA121, D3) was 93.1%.
